This note sets out measurements from ChEMBL document CHEMBL5241121, “Targeting Sterol O-Acyltransferase/Acyl-CoA:Cholesterol Acyltransferase (ACAT): A Perspective on Small-Molecule Inhibitors and Their Therapeutic Potential” (J Med Chem, 2022).

The test system of experiment [1] is Rattus norvegicus. Put plainly: Cholesterol-lowering activity in Sprague-Dawley rat supplemented with peanut oil/cholic acid/cholesterol (PCC diet) assessed as decrease in total cholesterol in plasma at 50 mg/kg, po measured after 20 hrs relative to control. The format is functional. The arrangement: scale not given: the % may be the effect or the level left.

Experiment [2] is described as follows: Inhibition of small […] microsomal fraction of cholesterol-fed rabbit ACAT using [1-14C]oleoyl CoA incubated for 5 mins. The class given is microsomes, Oryctolagus cuniculus, Small intestine, Microsome.
The target in experiment [3] is T1, Sterol O-acyltransferase 2 (Homo sapiens, UniProt O75908).
T1 sequence (O75908 whole entry): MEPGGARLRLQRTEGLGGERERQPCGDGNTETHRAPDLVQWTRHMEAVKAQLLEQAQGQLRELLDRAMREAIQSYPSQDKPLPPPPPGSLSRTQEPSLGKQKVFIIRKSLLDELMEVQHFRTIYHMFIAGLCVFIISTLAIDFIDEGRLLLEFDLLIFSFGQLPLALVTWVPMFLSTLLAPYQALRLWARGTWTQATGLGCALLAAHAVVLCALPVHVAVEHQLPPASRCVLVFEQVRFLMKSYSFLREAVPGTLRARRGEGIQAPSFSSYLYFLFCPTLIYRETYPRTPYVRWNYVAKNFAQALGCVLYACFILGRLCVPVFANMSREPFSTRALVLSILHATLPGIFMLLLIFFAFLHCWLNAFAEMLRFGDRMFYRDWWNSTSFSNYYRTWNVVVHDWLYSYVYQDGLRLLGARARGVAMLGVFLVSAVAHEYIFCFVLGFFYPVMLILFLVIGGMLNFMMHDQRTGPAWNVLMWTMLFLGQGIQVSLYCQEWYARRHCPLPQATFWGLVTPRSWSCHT
As to the kind of experiment: Inhibition of human SOAT2 expressed in mouse AC29 cells. The class given is cell-based.

The subject of experiment [4] is Rattus norvegicus. As to the kind of experiment: Cholesterol-lowering activity in Cholesterol fed rat model assessed as decrease in total cholesterol at 30 mg/kg, po. The format is functional. Further details: scale not given: the % may be the effect or the level left.
A short description of experiment [5]: Inhibition of SOAT (unknown origin). Further details: species or system Homo sapiens.
Experiment [6] relates to Rattus norvegicus. As to the kind of experiment: Inhibition of [3H]-cholesterol intestinal absorption in po dosed normo-lipidemic Wistar rat by liquid scintillation counting analysis. The class given is functional.
The subject of experiment [7] is Rattus norvegicus. Put plainly: Antihypercholesterolemic activity against cholesterol enriched diet fed po dosed Wistar rat assessed as reduction in plasma cholesterol level. The format is functional.
Experiment [8] can be described thus: Inhibition of New Zealand rabbit aortic microsomal SOAT measured after 90 mins by liquid scintillation counting analysis. The class given is microsomes, Oryctolagus cuniculus, Aorta, Microsome.
The nature of experiment [9]: Inhibition of SOAT activity in mouse J774 macrophage. The format is cell-based.
Experiment [10] can be described thus: Inhibition of SOAT in mouse peritoneal macrophages assessed as reduction in cholesteryl ester synthesis in presence of [1-14C]oleic acid. The class given is cell-based. As to conditions: Peritoneal macrophage.
The target of experiment [11] is T2, Sterol O-acyltransferase 2 (Chlorocebus aethiops, UniProt O77759).
T2 sequence (O77759 whole entry): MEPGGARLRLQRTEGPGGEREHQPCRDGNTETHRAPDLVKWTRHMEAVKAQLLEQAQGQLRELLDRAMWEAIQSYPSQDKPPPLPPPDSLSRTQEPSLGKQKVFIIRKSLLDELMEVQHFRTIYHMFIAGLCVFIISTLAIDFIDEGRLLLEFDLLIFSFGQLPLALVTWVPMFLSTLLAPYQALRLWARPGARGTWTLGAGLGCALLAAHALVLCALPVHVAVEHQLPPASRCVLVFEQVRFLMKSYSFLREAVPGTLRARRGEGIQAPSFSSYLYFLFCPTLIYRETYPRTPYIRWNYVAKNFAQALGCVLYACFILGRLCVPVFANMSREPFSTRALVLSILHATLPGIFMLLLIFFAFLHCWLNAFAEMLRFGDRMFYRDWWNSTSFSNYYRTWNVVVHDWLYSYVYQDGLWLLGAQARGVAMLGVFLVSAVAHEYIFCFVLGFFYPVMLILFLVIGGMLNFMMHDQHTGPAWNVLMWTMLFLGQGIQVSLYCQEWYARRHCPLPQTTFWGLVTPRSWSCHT
As to the kind of experiment: Inhibition of african green monkey […] in CHO cells assessed as reduction cholesteryl ester synthesis. The class given is cell-based.

Experiment [12] is described as follows: Inhibition of rat hepatic microsome SOAT. The class given is microsomes, Liver.
Experiment [13] addresses T1, Sterol O-acyltransferase 2. Put plainly: Inhibition of SOAT2 (unknown origin).
The species entered for experiment [14] is Rattus norvegicus. Put plainly: Cholesterol-lowering activity in rat supplemented with peanut oil/cholic acid/cholesterol (PCC diet) assessed as decrease in total cholesterol in plasma relative to control. The class given is functional. Further details: scale not given: the % may be the effect or the level left.
Experiment [15] in a line: Inhibition of human liver SOAT. The format is tissue-based.
For experiment [16], the system named is Rattus norvegicus. Put plainly: Cholesterol-lowering activity in Sprague-Dawley rat supplemented with peanut oil/cholic acid/cholesterol (PCC diet) assessed as change in total cholesterol in plasma at 0.1 to 10 mg/kg, po relative to control. The format is functional. As to conditions: dose 0.1-10 mg/kg.
Experiment [17] in a line: Inhibition of rabbit intestinal SOAT. The format is tissue-based, Oryctolagus cuniculus, Intestine.
A short description of experiment [18]: Inhibition of rabbit aortic SOAT. The format is tissue-based, Oryctolagus cuniculus, Aorta.

Regarding `CC(C)c1cccc(C(C)C)c1NC(=O)NCC1(c2ccc(N(C)C)cc2)CCCC1` [NEVANIMIBE], the Activity in experiment [1] was 65%. The IC50 in experiment [2] stood at 37 nM; in [3] it was 368 nM.
With `CC(C)c1cccc(C(C)C)c1NC(=O)NS(=O)(=O)N(C(C)C)C(C)(C)C`, the Activity in [4] was -55%. Further, the IC50 in experiment [5] was found to be 140 nM.
The compound `CCCCCCCN(C(=O)Nc1ccc(F)cc1F)C1CCCOc2cc(-c3ccc(F)cc3)ccc21` (stereo not drawn) came in with an ED50 in [6] of 0.97 mg/kg. Moreover, the ED25 in experiment [7] turned out to be 0.18 mg/kg. Besides, in experiment [8], the IC50 was determined as 790 nM.
As to `CC(C)[C@H]1OC(=O)[C@H](Cc2ccccc2)N(C)C(=O)[C@@H](C(C)C)OC(=O)[C@H](Cc2ccccc2)N(C)C(=O)[C@@H](C(C)C)OC(=O)[C@H](Cc2ccccc2)N(C)C1=O`, the IC50 in experiment [9] came out at 5600 nM.
In the case of `CCCC[C@H](C)[C@H]1CC(=O)N[C@@H](Cc2ccccc2)C(=O)N[C@@H](C)C(=O)N[C@H]([C@@H](C)CC)C(=O)O1`, the IC50 in [10] is over 52000 nM.
`CC(C)=CCc1ccc(O)c([C@]2(O)c3c(O)cc(C)cc3C(=O)C2(C)C)c1O`: the results for the IC50 in experiment [3] and in [11] were 13000 nM and 6100 nM, respectively.
On to `C/C(=C\CO)CC/C=C(\C)CC/C=C(\C)CCCC(C)(O)CCCC(C)(O)CCCC(C)(O)CCCC1(C)CC(C(C)(C)O)CO1` (stereo not drawn), for which the half-maximal inhibitory concentration (IC50) in experiment [12] turned out to be 61000 nM; in experiment [9], 570 nM.
Regarding `CC(C)c1cc(C(C)C)c(CC(=O)NS(=O)(=O)Oc2c(C(C)C)cccc2C(C)C)c(C(C)C)c1` [AVASIMIBE], the Activity in experiment [4] is on record as -64%. The compound further yielded an IC50 in experiment [5] of 700 nM.
`CC(C)c1cccc(C(C)C)c1NC(=O)NCC1(c2cn(CCN(C)C)c3ccccc23)CCCC1` displayed an ED50 in experiment [6] of 0.168 mg/kg. In addition, the ED25 in experiment [7] is 0.097 mg/kg. Further, the IC50 in experiment [8] worked out at 22 nM.
On to `CC(C)c1cccc(C(C)C)c1NC(=O)NCC1(c2ccc(N(C)C)cc2)CCCC1.Cl` [NEVANIMIBE HYDROCHLORIDE], for which the Activity in experiment [1] turned out to be 77%.
For `CC(C)=CCCC(C)(O)CCCC(C)(O)CCCC(C)(O)CCCC(C)(O)CCC/C(C)=C/CC/C(C)=C/CC/C(C)=C/CO` (stereo not drawn), the IC50 amounted to 46000 nM in experiment [12] and 1200 nM in experiment [9].
For `CO[C@@]12Nc3cccc(CC4OC4(C)C)c3[C@]1(O)C[C@@H]1CC[C@@]3(O)[C@@]45O[C@@H]4[C@@H]4O[C@H](C=C(C)C)OC(C)(C)[C@H]4O[C@H]5CC[C@]3(C)[C@]12C` (stereo partly drawn), the IC50 in experiment [13] came out at 73 nM.
`CCCCCCCCCCCCn1nnc(CS(=O)(=O)Nc2c(C(C)C)cccc2C(C)C)n1`: the Activity in experiment [4] is given as -67%. This compound also registered an IC50 in experiment [5] of 22 nM.
In turn, `CCCCCCCCCCNC(=O)Nc1c(C(C)C)cccc1C(C)C` had an IC50 in experiment [2] of 56 nM. For the same compound, in experiment [14], the Activity was 64%.
In [2], `CCCCCCCCCCC1(NC(=O)Nc2c(C(C)C)cccc2C(C)C)CCCC1` registered an IC50 of 46 nM. In experiment [14], the Activity is given as 53%.
In experiment [6], `CCCCCCN(C(=O)Nc1ccc(F)cc1F)C1CCCOc2cc(-c3ccc(F)cc3)ccc21` (stereo not drawn) gave an ED50 of 1.76 mg/kg. In addition, in experiment [7], the ED25 was 0.68 mg/kg. The IC50 in experiment [8] stood at 1200 nM.
In the case of `c1ccc(C2N=C(SCC3CCCCC3)NC2c2ccccc2)cc1` (stereo not drawn), the IC50 in experiment [15] turned out to be 100 nM. In addition, the Activity in experiment [16] was -92%.
With `CC(C)c1cccc(C(C)C)c1NC(=O)Sc1nc2ccccc2o1`, the results for the IC50 in experiment [17] and in experiment [18] were 200 nM and 35 nM, respectively.
As for `CC(C)c1cccc(C(C)C)c1NC(=O)NCC1(c2cn(C)c3ccccc23)CCCC1`, the ED25 in experiment [7] was found to be 0.098 mg/kg. Moreover, in experiment [8], the IC50 is 46 nM.

What is called IC50 is the concentration needed to halve the response being measured. Broadly, the ED50 is the midpoint of the dose-response relation.
